According to patent US20260125374A1, “PI3K-ALPHA INHIBITORS AND METHODS OF MAKING AND USING THE SAME” (Relay Therapeutics, Inc., priority 2021, published 2026):
Marks after values point to notes of the source that are not given here.

Key:
[1] = Stability of III-1 & I-1 solid; format: physicochemical; settings: after 38 days; initial 99.0%
[2] = Polymorph screening (equilibration, anti-solvent, slow evaporation, slow cooling, temperature cycling, heating-cooling; XRPD and SFC); format: physicochemical
Procedure: This polymorph screening program of compound I-1 free form was performed with two batches of the pure enantiomer. Both batches are crystalline and is assigned as Form A. The polymorphic behaviors of the enantiomer were investigated by equilibration at 25° C. and 50° C., equilibration under a temperature cycle, crystallization from hot saturated solutions by slow cooling, slow evaporation, precipitation by addition of anti-solvent, and DSC heating-cooling cycle experiments. Relative stability of identified polymorphs was investigated by competitive slurry experiments.
(§1) About 50 mg of I-1 Form A was weighed into a 2 mL glass vial and equilibrated in suitable amount of solvents (pretreated by molecular sieves) at 25° C. for 2 weeks with a stirring plate and with protection from light. Obtained suspensions were filtered with 0.45 μm nylon membrane and the solid parts (wet cake) were investigated by XRPD. When differences were observed, additional investigations were performed (e.g. DSC, TGA, ^1H-NMR, SFC).
as §1, with “into” for “into a”, “vials” for “vial”, “50°” for “25°”, “10 days” for “2 weeks”, “investigation was” for “investigations were”
I-1 Form A was dissolved in a good solvent. […] The solvents used were pretreated by molecular sieve. Precipitates were collected by filtration. The solid part (wet cake) was investigated by XRPD. […] When differences were observed, additional investigations were performed (e.g. DSC, TGA, ^1H-NMR, SFC).
Based on approximate solubility results, I-1 Form A was dissolved in suitable amount of solvents (pretreated by molecular sieves). Obtained solutions were filtered by 0.45 μm nylon filter. […] Solid residues were examined for their polymorphic form. When differences were observed, additional investigations were performed (e.g. DSC, TGA, ^1H-NMR, SFC).
Approximate 50 mg of batch I-1 Form A were dissolved in the minimal amount of selected solvents (without pretreatment by molecular sieves) at 50° C. Obtained solutions were filtered by 0.45 μm nylon filter. […] Precipitates were collected by filtration. The solid parts (wet cake) were investigated by XRPD. When differences were observed, additional investigations were performed (e.g. DSC, TGA, ^1H-NMR, SFC). When no precipitation was obtained or only a few solids were obtained, the solutions were placed at 5° C. for crystallization.
About 50 mg of I-1 Form A was equilibrated in different solvents (pretreated by molecular sieves) under a temperature cycle between 5° C. to 50° C. at a heating/cooling rate of 0.2° C./min for 10 cycles and with protection from light. After 10 cycles, precipitates were collected at 5° C. by filtration. The solid parts (wet cake) were investigated by XRPD. When differences were observed, additional investigations were performed (e.g. DSC, TGA, 1H-NMR, SFC).
Polymorphic behavior of I-1 Form A was investigated by two different heating-cooling cycles of DSC. Cycle 1:30° C. to 280° C. at 10° C./min; 280° C. to −20° C. at 20° C./min; reheat to 300° C. at 10° C./min. Cycle 2:30° C. to 280° C. at 10° C./min; 280° C. to-20° C. at 2° C./min; reheat to 300° C. at 10° C./min.

[3] = Stability of the process (III-1 in solution); format: physicochemical
[4] = Solubility in DCM/Methanol mixtures; format: physicochemical
Procedure: The solubility was evaluated on various ratio of DCM and Methanol mixtures.

[5] = test system: PIK3CA-mediated AKT phosphorylation in MCF10A cells overexpressing hotspot PIK3CA mutations (H1047R, E542K, E545K); test: MCF10A Cell-Based PIK3CA Kinase Assay (CisBio Phospho-AKT (Ser473) HTRF assay); settings: Homo sapiens, MCF-10A, 2 hours compound incubation, read-out: Cell - PD - MCF10A H1047R/−−2483 (IC50)
Procedure: Selected compounds of the present disclosure were tested in a MCF10A Cell-Based PIK3CA Kinase Assay, namely the CisBio Phospho-AKT (Ser473) HTRF assay, to measure the degree of PIK3CA-mediated AKT phosphorylation. MCF10A cells (immortalized non-transformed breast cell line) overexpressing hotspot PIK3CA mutations (including H1047R, E542K, and E545K mutations) were used. Cells were seeded at 5,000 cells per well in DMEM/F12 (Thermo Fisher Scientific) supplemented with […], 100 ng/ml Cholera Toxin, 10 μg/mL insulin, and 0.5% horse serum. Once plated, cells were placed in a 5% CO2, 37° C. incubator to adhere overnight.
The following day, compounds were added to the cell plates in 12 doses of 1:3 serial dilutions. The dose response curves were run in duplicate. Compound addition was carried out utilizing an Echo 55 Liquid Handler acoustic dispenser (Labcyte). The cell plates were incubated for 2 hours in a 5% CO2, 37° C. incubator. Following compound incubation, the cells were lysed for 60 min at room temperature. Finally, a 4-hour incubation with the HTRF antibodies was performed at room temperature. All reagents, both lysis buffer and antibodies, were used from the CisBio pAKT S473 HTRF assay kit, as per the manufacturers protocol. Plates were read on an Envision 2105 (Perkin Elmer), and the IC50 values were calculated using Genedata software.

[6] = Before stirring, 3 g product in solution
[7] = dissolved in DCM/MeOH/DMF, concentrated to 3V, 16 h, 40° C.
[8] = dissolved in MeOH, 34 h, 50° C.
[9] = dissolved in MeOH, 42 h, 50° C.
[10] = dissolved in MeOH, 60 h, 50° C.
[11] = dissolved in MeOH, stirred 18 h, 34° C.

N#Cc1c(-c2cc(NC(=O)c3cc(F)cc(C(F)(F)F)c3)c3c(c2)C(=O)NC3c2cc(F)ccc2Cl)ccc2ncnn12 (racemic) [III-1, N-(3-(2-chloro-5-fluorophenyl)-6-(5-cyano-[1,2,4]triazolo[1,5-a]pyridin-6-yl)-1-oxoisoindolin-4-yl)-3-fluoro-5-(trifluoromethyl)benzamide]
purity of solid after storage [1]: 99.1% | ee %(SFC) ([2]; anti-solvent precipitation: MeOH / MTBE(4V), stirred at 25° C. for 23 days, SFC immediately after preparation): ee % (SFC): 2.7%* | ee %(SFC) ([2]; equilibration at 50° C. for 10 days in ACN/water(80:20, v/v), SFC immediately after preparation): ee % (SFC): 50.7%*. | ee %(SFC) ([2]; equilibration at 50° C. for 10 days in Acetone/water(60:40, v/v), SFC immediately after preparation): ee % (SFC): 56.9%* | ee %(SFC) ([2]; equilibration at 50° C. for 10 days in EtOH/water(50:50, v/v), SFC after preparation for about 12 h): ee % (SFC): 75.0%#; | ee %(SFC) ([2]; equilibration at 50° C. for 10 days in EtOH/water(50:50, v/v), SFC immediately after preparation): ee % (SFC): 76.9%*, | ee %(SFC) ([2]; equilibration at 50° C. for 10 days in Methanol, SFC immediately after preparation): ee % (SFC): 48.4%* | ee %(SFC) ([2]; slow evaporation from MeOH, SFC immediately after preparation): ee % (SFC): 68.6%* | ee %(SFC) ([2]; solid from crystallization from DMF/Acetone water, SFC immediately after preparation): ee % (SFC): −0.3%* | HPLC/RRT Purity, RRT 1.00 (purity of III-1) [3, 6]: 96.23% | HPLC/RRT Purity, impurity at RRT 0.41 [3, 6]: 0.10% | HPLC/RRT Purity, impurity at RRT 0.94 [3, 6]: 0.62% | HPLC/RRT Purity, impurity at RRT 1.37 [3, 6]: 1.98% | HPLC/RRT Purity, impurity at RRT 1.38 [3, 6]: 0.31% | impurity @RRT 1.26 generated ([3]; DCM/MeOH/DMF concentrated to 3V, 17 h at 40° C.): 0.15% | impurity @RRT 0.74 generated ([3]; MeOH, over 18 h at 34° C.): 0.15% | purity after stirring in MeOH ([3]; MeOH, over 18 h at 34° C.): 96.0% | impurity @RRT 0.74 ([3]; MeOH, over 60 h at 50° C.): 3.44% | purity after stirring in DCM/MeOH/DMF ([3]; concentrated to 3V under 40° C., stirred for 17 h at 40° C.): 94.57% | HPLC/RRT Purity, RRT 1.00 (purity of III-1) [3, 7]: 94.57% | HPLC/RRT Purity, impurity at RRT 0.41 [3, 7]: 0.11% | HPLC/RRT Purity, impurity at RRT 0.74 [3, 7]: 0.03% | HPLC/RRT Purity, impurity at RRT 0.94 [3, 7]: 0.68% | HPLC/RRT Purity, impurity at RRT 1.26 [3, 7]: 0.33% | HPLC/RRT Purity, impurity at RRT 1.37 [3, 7]: 2.51% | HPLC/RRT Purity, impurity at RRT 1.38 [3, 7]: 0.46% | HPLC/RRT Purity, RRT 1.00 (purity of III-1) [3, 8]: 93.53% | HPLC/RRT Purity, impurity at RRT 0.41 [3, 8]: 0.15% | HPLC/RRT Purity, impurity at RRT 0.74 [3, 8]: 2.49% | HPLC/RRT Purity, impurity at RRT 0.94 [3, 8]: 0.67% | HPLC/RRT Purity, impurity at RRT 0.96 [3, 8]: 0.20% | HPLC/RRT Purity, impurity at RRT 1.26 [3, 8]: 0.19% | HPLC/RRT Purity, impurity at RRT 1.37 [3, 8]: 2.13% | HPLC/RRT Purity, impurity at RRT 1.38 [3, 8]: 0.26% | HPLC/RRT Purity, RRT 1.00 (purity of III-1) [3, 9]: 92.67% | HPLC/RRT Purity, impurity at RRT 0.41 [3, 9]: 0.17% | HPLC/RRT Purity, impurity at RRT 0.74 [3, 9]: 2.98% | HPLC/RRT Purity, impurity at RRT 0.94 [3, 9]: 0.67% | HPLC/RRT Purity, impurity at RRT 0.96 [3, 9]: 0.25% | HPLC/RRT Purity, impurity at RRT 1.26 [3, 9]: 0.38% | HPLC/RRT Purity, impurity at RRT 1.37 [3, 9]: 2.15% | HPLC/RRT Purity, impurity at RRT 1.38 [3, 9]: 0.20% | HPLC/RRT Purity, RRT 1.00 (purity of III-1) [3, 10]: 91.45% | HPLC/RRT Purity, impurity at RRT 0.41 [3, 10]: 0.19% | HPLC/RRT Purity, impurity at RRT 0.74 [3, 10]: 3.45% | HPLC/RRT Purity, impurity at RRT 0.94 [3, 10]: 0.67% | HPLC/RRT Purity, impurity at RRT 0.96 [3, 10]: 0.40% | HPLC/RRT Purity, impurity at RRT 1.26 [3, 10]: 0.58% | HPLC/RRT Purity, impurity at RRT 1.37 [3, 10]: 2.26% | HPLC/RRT Purity, impurity at RRT 1.38 [3, 10]: 0.23% | HPLC/RRT Purity, RRT 1.00 (purity of III-1) [3, 11]: 95.98% | HPLC/RRT Purity, impurity at RRT 0.41 [3, 11]: 0.10% | HPLC/RRT Purity, impurity at RRT 0.74 [3, 11]: 0.15% | HPLC/RRT Purity, impurity at RRT 0.94 [3, 11]: 0.59% | HPLC/RRT Purity, impurity at RRT 1.37 [3, 11]: 2.33% | HPLC/RRT Purity, impurity at RRT 1.38 [3, 11]: 0.29% | solubility in DCM/MeOH=90:10 mixture [4]: limited solubility

[2H][C@@]1(c2cc(F)ccc2Cl)NC(=O)c2cc(-c3ccc4ncnn4c3C#N)cc(NC(=O)c3cc(F)cc(C(F)(F)F)c3)c21 [IV-2]
IC50 [5]: ≤ 1 µM
